# Laboratory results as given in US20240101570A1 (AMGEN INC., priority 2020, published 2024).
# How the values were obtained:
# HCT116 MTAP null cells = test: HCT116 MTAP null cell proliferation / viability (CellTiter-Glo, 6 days); type: cell-based; settings: for IC50: HCT116-MTAP null, 144 h, HCT116 MTAP null cells, 6 days, CellTiter-Glo, read-out: HCT-116 MTAP null IC50
# Procedure: (§1) HCT116 MTAP null and WT cells were seeded in 96-well tissue culture plates in RPMI 1640 media+10% fetal bovine serum. Plates were incubated overnight at 37° C. and 5% CO2. Cells were then treated with an 8- or 9-point serial dilution of compound, using a top concentration of 1, or 10 μM, 1:3 serial dilution steps and, a DMSO-only control. Cells were incubated in the presence of drug for 6 days. Effects on cell viability were measured with the CellTiter-Glo® Luminescent Cell Viability Assay (Promega) per manufacturer's recommendation. Assay plates were read on an EnVision™ Multilabel Reader using the Ultra-Sensitive luminescence module. IC50 values were calculated with GraphPad Prism v 5.01 using symmetrical sigmoidal dose-response least squares fit with Hill slope fixed to −1 and top constrain to 100% or GeneData Screener using a 4-parameter logistic model to fit dose response curves.
# (§2) Alternatively, compounds could be assayed with a 384 well plate format:
# (§3) Compounds were pre-spotted into 384 well plates with a 22-point serial dilution of compound, using a top concentration of 10 or 50 μM, 1:2 serial dilution steps and, a DMSO-only control. HCT116 MTAP null and WT cells were then seeded as above and after 6 days effects on cell viability were measured with the CellTiter-Glo® Luminescent Cell Viability Assay (Promega). Assay plates were read as above and IC50 values were calculated with GeneData Screener using a 4-parameter logistic model to fit dose response curves. The reported IC50 represents the value where the curve transits 50% of control.
# HCT116 WT cells = test: HCT116 WT cell proliferation / viability (CellTiter-Glo, 6 days); type: cell-based; settings: Homo sapiens, HCT-116, 144 h, HCT116 WT cells, 6 days, CellTiter-Glo; read-out: HCT-116 WT IC50
# Procedure: as §1, §2, §3
Compound,IC50 (HCT116 MTAP null cells) [µM],IC50 (HCT116 WT cells) [µM],"potency of enantiomer relative to the other enantiomer, measured by IC50 in HCT116 MTAP null cell viability assay (HCT116 MTAP null cells; HCT116 MTAP null, comparison of the two SFC-separated enantiomers)"
"C[C@@H](NC(=O)c1ccc2nc(N)c3c(c2c1)CO[C@@H]3C)c1ccc(C(F)(F)F)cn1 [Example 768, (3R)-4-amino-3-methyl-N-((1R)-1-(5-(trifluoromethyl)-2-pyridinyl)ethyl)-1,3-dihydrofuro[3,4-c]quinoline-8-carboxamide]",4.23,> 50,–
"CC(C)CN(Cc1ccc(C(F)(F)F)cn1)C(=O)c1ccc2nc(N)c3c(c2c1)COC3C (stereo not drawn) [Example 919, 4-amino-N-isobutyl-3-methyl-N-((5-(trifluoromethyl)pyridin-2-yl)methyl)-1,3-dihydrofuro[3,4-c]quinoline-8-carboxamide]",0.025,–,–
"C[C@@H](CF)N(Cc1ccc(C#N)cn1)C(=O)c1ccc2nc(N)c3c(c2c1)COC3 (single isomer, unassigned) [Example 578]",0.338,4.93,less potent
"Nc1nc2ccc(C(=O)N(Cc3ccc(C(F)F)cn3)C3CC3)cc2c2c1COC2 [Example 456, 4-amino-N-cyclopropyl-N-((5-(difluoromethyl)-2-pyridinyl)methyl)-1,3-dihydrofuro[3,4-c]quinoline-8-carboxamide]",0.287,> 10,–
"CC(C)N(Cc1ccc(C(F)(F)F)cn1)C(=O)c1ccc2nc(N)c3c(c2c1)CO[C@@H]3C [Example 384, (3R)-4-amino-3-methyl-N-(2-propanyl)-N-((5-(trifluoromethyl)-2-pyridinyl)methyl)-1,3-dihydrofuro[3,4-c]quinoline-8-carboxamide]",0.053,1.38,–
"CC(C)N(C(=O)c1ccc2nc(N)c3c(c2c1)COC3)[C@@H](C)c1ccc(C(F)(F)F)cn1 (single isomer, unassigned) [Example 831]",2.57,31.7,–
"C[C@H]1OCc2c1c(N)nc1ccc(C(=O)N(Cc3ccc(C(F)(F)F)cn3)CC3CC3)cc21 [Example 334, (3R)-4-amino-N-(cyclopropylmethyl)-3-methyl-N-((5-(trifluoromethyl)-2-pyridinyl)methyl)-1,3-dihydrofuro[3,4-c]quinoline-8-carboxamide]",0.01,0.509,–
"C[C@H](c1ccc(C(F)(F)C(F)(F)F)cc1)N(C)C(=O)c1cc2c(cn1)nc(N)c1c2cnn1C [Example 786, 4-amino-N,3-dimethyl-N-((1R)-1-(4-(pentafluoroethyl)phenyl)ethyl)-3H-pyrazolo[3,4-c][1,7]naphthyridine-8-carboxamide]",0.126,7.33,–
"CC1OCc2c1c(N)nc1ccc(C(=O)N(Cc3ccc(C#N)cn3)Cc3cnc(N)s3)cc21 (stereo not drawn) [Example 914, 4-amino-N-((2-aminothiazol-5-yl)methyl)-N-((5-cyanopyridin-2-yl)methyl)-3-methyl-1,3-dihydrofuro[3,4-c]quinoline-8-carboxamide]",0.2,–,–
"COc1nc(C(F)(F)F)ccc1CN(C)C(=O)c1cc2c(cc1F)nc(N)c1cnn(C)c12 [Example 806, 4-amino-7-fluoro-N-((2-methoxy-6-(trifluoromethyl)-3-pyridinyl)methyl)-N,1-dimethyl-1H-pyrazolo[4,3-c]quinoline-8-carboxamide]",0.056,3.16,–
"CC1OCc2c1c(N)nc1ccc(C(=O)N(Cc3ccc(C(F)(F)F)cn3)C3CC3N)cc21 (stereo not drawn) [Example 906, 4-amino-N-(2-aminocyclopropyl)-3-methyl-N-((5-(trifluoromethyl)pyridin-2-yl)methyl)-1,3-dihydrofuro[3,4-c]quinoline-8-carboxamide]",0.79,–,–
"CC(CO)CN(Cc1ccc(C(F)(F)F)cn1)C(=O)c1ccc2nc(N)c3c(c2c1)COC3C (stereo not drawn) [Example 924, 4-amino-N-(3-hydroxy-2-methylpropyl)-3-methyl-N-((5-(trifluoromethyl)pyridin-2-yl)methyl)-1,3-dihydrofuro[3,4-c]quinoline-8-carboxamide]",0.043,–,–
"CC(C#N)CN(Cc1ccc(C(F)(F)F)cn1)C(=O)c1ccc2nc(N)c3c(c2c1)COC3C (stereo not drawn) [Example 928, 4-amino-N-(2-cyanopropyl)-3-methyl-N-((5-(trifluoromethyl)pyridin-2-yl)methyl)-1,3-dihydrofuro[3,4-c]quinoline-8-carboxamide]",0.039,–,–
"CC1OCc2c1c(N)nc1ccc(C(=O)N(Cc3ccc(C(F)(F)F)cn3)C3CCCC(O)C3)cc21 (stereo not drawn) [Example 921, 4-amino-N-(3-hydroxycyclohexyl)-3-methyl-N-((5-(trifluoromethyl)pyridin-2-yl)methyl)-1,3-dihydrofuro[3,4-c]quinoline-8-carboxamide]",0.093,–,–
"CC1OCc2c1c(N)nc1ccc(C(=O)N(Cc3ccc(C(F)(F)F)cn3)CC(O)C(F)(F)F)cc21 (stereo not drawn) [Example 925, 4-amino-3-methyl-N-(3,3,3-trifluoro-2-hydroxypropyl)-N-((5-(trifluoromethyl)pyridin-2-yl)methyl)-1,3-dihydrofuro[3,4-c]quinoline-8-carboxamide]",0.035,–,–
"CC1OCc2c1c(N)nc1ccc(C(=O)N(Cc3ccc(C(F)(F)F)cn3)CC3CCOC3)cc21 (stereo not drawn) [Example 927, 4-amino-3-methyl-N-((tetrahydrofuran-3-yl)methyl)-N-((5-(trifluoromethyl)pyridin-2-yl)methyl)-1,3-dihydrofuro[3,4-c]quinoline-8-carboxamide]",0.069,–,–
"CC1OCc2c1c(N)nc1ccc(C(=O)N(Cc3ccc(C(F)(F)F)cn3)Cc3ncn(C)n3)cc21 (stereo not drawn) [Example 926, 4-amino-3-methyl-N-((1-methyl-1H-1,2,4-triazol-3-yl)methyl)-N-((5-(trifluoromethyl)pyridin-2-yl)methyl)-1,3-dihydrofuro[3,4-c]quinoline-8-carboxamide]",0.03,–,–
"CC1OCc2c1c(N)nc1ccc(C(=O)N(Cc3ccc(C(F)(F)F)cn3)C[C@H]3CC[C@H](O)CC3)cc21 (stereo partly drawn) [Example 893, 4-amino-N-(((1r,4r)-4-hydroxycyclohexyl)methyl)-3-methyl-N-((5-(trifluoromethyl)pyridin-2-yl)methyl)-1,3-dihydrofuro[3,4-c]quinoline-8-carboxamide]",0.041,–,–
"CC1OCc2c1c(N)nc1ccc(C(=O)N(Cc3ccc(C#N)cn3)C[C@H]3CC[C@H](O)CC3)cc21 (stereo partly drawn) [Example 894, 4-amino-N-((5-cyanopyridin-2-yl)methyl)-N-(((1r,4r)-4-hydroxycyclohexyl)methyl)-3-methyl-1,3-dihydrofuro[3,4-c]quinoline-8-carboxamide]",0.18,–,–
"CC1OCc2c1c(N)nc1ccc(C(=O)N(CCC3CC(O)C3)Cc3ccc(C(F)(F)F)cn3)cc21 (stereo not drawn) [Example 922, 4-amino-N-(2-(3-hydroxycyclobutyl)ethyl)-3-methyl-N-((5-(trifluoromethyl)pyridin-2-yl)methyl)-1,3-dihydrofuro[3,4-c]quinoline-8-carboxamide]",0.048,–,–
"CC1OCc2c1c(N)nc1ccc(C(=O)N(CC3=CCCOC3)Cc3ccc(C#N)cn3)cc21 (stereo not drawn) [Example 912, 4-amino-N-((5-cyanopyridin-2-yl)methyl)-N-((5,6-dihydro-2H-pyran-3-yl)methyl)-3-methyl-1,3-dihydrofuro[3,4-c]quinoline-8-carboxamide]",0.14,–,–
"CC(O)CN(Cc1ccc(C(F)(F)F)cn1)C(=O)c1ccc2nc(N)c3c(c2c1)COC3C (stereo not drawn) [Example 923, 4-amino-N-(2-hydroxypropyl)-3-methyl-N-((5-(trifluoromethyl)pyridin-2-yl)methyl)-1,3-dihydrofuro[3,4-c]quinoline-8-carboxamide]",0.056,–,–
"CC(C)N(Cc1ccc(Br)nn1)C(=O)c1ccc2nc(N)c3c(c2c1)COC3 [Example 335, 4-amino-N-((6-bromo-3-pyridazinyl)methyl)-N-(2-propanyl)-1,3-dihydrofuro[3,4-c]quinoline-8-carboxamide]",0.361,–,–
"CC1OCc2c1c(N)nc1ccc(C(=O)N(Cc3ccc(C(F)(F)F)cn3)C(C)C(C)O)cc21 (stereo not drawn) [Example 920, 4-amino-N-(3-hydroxybutan-2-yl)-3-methyl-N-((5-(trifluoromethyl)pyridin-2-yl)methyl)-1,3-dihydrofuro[3,4-c]quinoline-8-carboxamide]",0.076,–,–
"CC(C)(C)CN(Cc1ccc(C(F)(F)F)cn1)C(=O)c1ccc2nc(N)c3c(c2c1)COC3 [Example 342, 4-amino-N-(2,2-dimethylpropyl)-N-((5-(trifluoromethyl)-2-pyridinyl)methyl)-1,3-dihydrofuro[3,4-c]quinoline-8-carboxamide]",1.31,–,–
"CC1OCc2c1c(N)nc1ccc(C(=O)N(Cc3ccc(C(F)(F)F)cn3)C(C)C3CCOCC3)cc21 (stereo not drawn) [Example 891, 4-amino-3-methyl-N-(1-(tetrahydro-2H-pyran-4-yl)ethyl)-N-((5-(trifluoromethyl)pyridin-2-yl)methyl)-1,3-dihydrofuro[3,4-c]quinoline-8-carboxamide]",0.04,–,–
"CC1(N(Cc2ccc(C(F)(F)F)cn2)C(=O)c2cc3c4c(c(N)nc3cn2)COC4)CC1 [Example 699, 4-amino-N-(1-methylcyclopropyl)-N-((5-(trifluoromethyl)-2-pyridinyl)methyl)-1,3-dihydrofuro[3,4-c][1,7]naphthyridine-8-carboxamide]",0.249,–,–
